# Patent US11046696B2, “Fused pyrimidine compound or salt thereof” (TAIHO PHARMACEUTICAL CO., LTD., priority 2016, dated 2021)
# System: human thyroid cancer cell line TT with RET activating mutation
# Assay: In vivo antitumor effect, mice subcutaneously implanted with TT cells
# Set-up: species or system BALB/cA Jcl-nu/nu male mice
# Conditions: 100 mg/kg/day group, grouping day (day 0)
# Procedure: Human thyroid cancer cell lines (TT) were subcutaneously implanted into the right frank of 6- to 7-week-old BALB/cA Jcl-nu/nu male mice. After about 2 to 3 weeks from the cell implantation, the length (mm) and the width (mm) of tumors found in mouse bodies were measured. […] The day on which the mice were divided into groups was determined to be the “grouping day” (day 0 or 1).
# A control group was administered a solvent (0.5% HPMC/0.1N HCl).
# To determine the index of the antitumor effect, TV of each drug-administrated group was measured on day 15, and the tumor volume on day 15 relative to the tumor volume on the grouping day (day 0 or 1) (relative tumor volume: RTV) and T/C (%) were calculated from the following equations, and the antitumor effect was evaluated. […] TV (mm^3)=(length×width^2)/2 RTV=(TV on day 15)/(TV on day 0 or day 1) T/C(%)=(the mean RTV of a test compound treatment group)/(the mean RTV of the control group)×100
row,Structure (SMILES),TV (mm^3) Day 0 Mean ± SE
1,"COCc1ccc(NC(=O)c2c(C#CCN3CCOCC3)n(C3(C)CC3)c3ncnc(N)c23)cc1 [Example 85, 4-amino-N-[4-(methoxymethyl)phenyl]-7-(1-methylcyclopropyl)-6-(3-morpholinoprop-1-yn-1-yl)-7H-pyrrolo[2,3-d]pyrimidine-5-carboxamide]",169.45 ± 16.73 mm^3

# System: not given
# Assay: not given
# Conditions: mouse, microsomes, 0.5 h, 1 μM
row,Structure (SMILES),Remaining (%)
1,"C/C=C/c1ccc(NC(=O)c2c(OCC)n(C3(C)CC3)c3ncnc(N)c23)cc1 [Example 117, (E)-4-amino-6-ethoxy-7-(1-methylcyclopropyl)-N-(4-(prop-1-en-1-yl)phenyl)-7H-pyrrolo[2,3-d]pyrimidine-5-carboxamide]",53%

# System: not listed separately
# Assay: Evaluation of stability in liver microsome
# Conditions: mouse liver microsome, 1 μM, 37° C. for 30 minutes
# Procedure: Solutions of the test compounds in DMSO/acetonitrile (the final concentration of each test compound was 1 μM, the final concentration of DMSO was 0.01%, and the final concentration of acetonitrile was 1%) were individually added to a liver microsome mixture solution (mouse liver microsome with a final concentration of 0.25 mg/mL, a potassium phosphate buffer with a final concentration of 100 mM, and magnesium chloride with a final concentration of 3 mM), and each mixture was pre-incubated at 37° C. for 5 minutes. […] After incubation at 37° C. for 30 minutes, a double amount of ethanol was added thereto to terminate the reaction, thereby obtaining post-reaction samples. A double amount of ethanol was added to each of the remaining mixture solutions, and a NADPH-generating system was further added thereto, thereby obtaining pre-reaction samples. The pre-reaction samples and post-reaction samples were centrifuged at 2000×g, and their supernatant was filtered through a glass filter. Each filtrate was then introduced into LC-MS/MS, and MS/MS peaks of the test compounds were detected. From the ratio of the post-reaction MS/MS peak to the pre-reaction MS/MS peak of the test compounds, the percentage of the remaining test compounds (remaining %) was calculated.
row,Structure (SMILES),Remaining (%)
1,"COCc1ccc(NC(=O)c2c(C#CC3CCN(C)CC3)n(C3(C)CC3)c3ncnc(N)c23)cc1 [Example 183, 4-amino-N-(4-(methoxymethyl)phenyl)-7-(1-methylcyclopropyl)-6-((1-methylpiperidin-4-yl)ethynyl)-7H-pyrrolo[2,3-d]pyrimidine-5-carboxamide]",77%
2,"COCc1ccc(NC(=O)c2c(C#Cc3c(C)noc3C)n(C3(C)CC3)c3ncnc(N)c23)cc1 [Example 184, 4-amino-6-((3,5-dimethylisoxazol-4-yl)ethynyl)-N-(4-(methoxymethyl)phenyl)-7-(1-methylcyclopropyl)-7H-pyrrolo[2,3-d]pyrimidine-5-carboxamide]",58%
3,"COCc1ccc(NC(=O)c2c(C#CC3(O)CCOCC3)n(C3(C)CC3)c3ncnc(N)c23)cc1 [Example 185, 4-amino-6-((4-hydroxytetrahydro-2H-pyran4-yl)ethynyl)-N-(4-(methoxymethyl)phenyl)-7-(1-methylcyclopropyl)-7H-pyrrolo[2,3-d]pyrimidine-5-carboxamide]",80%
4,"COCc1ccc(NC(=O)c2c(C#CCCN3CCOCC3)n(C3(C)CC3)c3ncnc(N)c23)cc1 [Example 187, 4-amino-N-(4-(methoxymethyl)phenyl)-7-(1-methylcyclopropyl)-6-(4-morpholinobut-1-yn-1-yl)-7H-pyrrolo[2,3-d]pyrimidine-5-carboxamide]",68%
5,"COCc1ccc(NC(=O)c2c(C#CCC(C)O)n(C3(C)CC3)c3ncnc(N)c23)cc1 (stereo not shown) [Example 188, 4-amino-6-(4-hydroxypent-1-yn-1-yl)-N-(4-(methoxymethyl)phenyl)-7-(1-methylcyclopropyl)-7H-pyrrolo[2,3-d]pyrimidine-5-carboxamide]",68%
6,"COCc1ccc(NC(=O)c2c(-c3ccc(F)nc3)n(C3(C)CC3)c3ncnc(N)c23)cc1 [Example 190, 4-amino-6-(6-fluoropyridin-3-yl)-N-(4-(methoxymethyl)phenyl)-7-(1-methylcyclopropyl)-7H-pyrrolo[2,3-d]pyrimidine-5-carboxamide]",58%
7,"COCc1ccc(NC(=O)c2c(C#Cc3cnc[nH]3)n(C3(C)CC3)c3ncnc(N)c23)cc1 [Example 191, 6-((1H-imidazol-5-yl)ethynyl)-4-amino-N-(4-(methoxymethyl)phenyl)-7-(1-methylcyclopropyl)-7H-pyrrolo[2,3-d]pyrimidine-5-carboxamide]",53%
8,"COCc1ccc(NC(=O)c2c(C#Cc3ccc(OC)nc3)n(C3(C)CC3)c3ncnc(N)c23)cc1 [Example 192, 4-amino-N-(4-(methoxymethyl)phenyl)-6-((6-methoxypyridin-3-yl)ethynyl)-7-(1-methylcyclopropyl)-7H-pyrrolo[2,3-d]pyrimidine-5-carboxamide]",79%
9,"COCc1ccc(NC(=O)c2c(C#Cc3cncs3)n(C3(C)CC3)c3ncnc(N)c23)cc1 [Example 193, 4-amino-N-[4-(methoxymethyl)phenyl]-7-(1-methylcyclopropyl)-6-(thiazol-5-ylethynyl)-7H-pyrrolo[2,3-d]pyrimidine-5-carboxamide]",51%
10,"COCc1ccc(NC(=O)c2c(-c3cncnc3)n(C3(C)CC3)c3ncnc(N)c23)cc1 [Example 194, 4-amino-N-(4-(methoxymethyl)phenyl)-7-(1-methylcyclopropyl)-6-(pyrimidin-5-yl)-7H-pyrrolo[2,3-d]pyrimidine-5-carboxamide]",67%
11,"COCc1ccc(NC(=O)c2c(C#Cc3cncc(C#N)c3)n(C3(C)CC3)c3ncnc(N)c23)cc1 [Example 195, 4-amino-6-((5-cyanopyridin-3-yl)ethynyl)-N-(4-(methoxymethyl)phenyl)-7-(1-methylcyclopropyl)-7H-pyrrolo[2,3-d]pyrimidine-5-carboxamide]",70%
12,"COCc1ccc(NC(=O)c2c(C#Cc3cncnc3)n(C3(C)CC3)c3ncnc(N)c23)cc1 [Example 196, 4-amino-N-(4-(methoxymethyl)phenyl)-7-(1-methylcyclopropyl)-6-(pyrimidin-5-ylethynyl)-7H-pyrrolo[2,3-d]pyrimidine-5-carboxamide]",53%
13,"COCCN(C)CC#Cc1c(C(=O)Nc2ccc(COC)cc2)c2c(N)ncnc2n1C1(C)CC1 [Example 197, 4-amino-6-(3-((2-methoxyethyl)(methyl)amino)prop-1-yn-1-yl)-N-(4-(methoxymethyl)phenyl)-7-(1-methylcyclopropyl)-7H-pyrrolo[2,3-d]pyrimidine-5-carboxamide]",52%
14,"COCc1ccc(NC(=O)c2c(C#CCN(C)C)n(C3(C)CC3)c3ncnc(N)c23)cc1 [Example 198, 4-amino-6-(3-(dimethylamino)prop-1-yn-1-yl)-N-(4-(methoxymethyl)phenyl)-7-(1-methylcyclopropyl)-7H-pyrrolo[2,3-d]pyrimidine-5-carboxamide]",57%
15,"COCc1ccc(NC(=O)c2c(C#CCC3CCCCC3)n(C3(C)CC3)c3ncnc(N)c23)cc1 [Example 199, 4-amino-6-(3-cyclohexylprop-1-yn-1-yl)-N-(4-(methoxymethyl)phenyl)-7-(1-methylcyclopropyl)-7H-pyrrolo[2,3-d]pyrimidine-5-carboxamide]",80%
16,"COCc1ccc(NC(=O)c2c(C3=CCOCC3)n(C3(C)CC3)c3ncnc(N)c23)cc1 [Example 203, 4-amino-6-(3,6-dihydro-2H-pyran-4-yl)-N-(4-(methoxymethyl)phenyl)-7-(1-methylcyclopropyl)-7H-pyrrolo[2,3-d]pyrimidine-5-carboxamide]",68%
17,"COCc1ccc(NC(=O)c2c(C(C)O)n(C3(C)CC3)c3ncnc(N)c23)cc1 (stereo not shown) [Example 204, 4-amino-6-(1-hydroxyethyl)-N-(4-(methoxymethyl)phenyl)-7-(1-methylcyclopropyl)-7H-pyrrolo[2,3-d]pyrimidine-5-carboxamide]",83%
18,"COCc1ccc(NC(=O)c2c(C#CC3CCOCC3)n(C3(C)CC3)c3ncnc(N)c23)cc1F [Example 205, 4-amino-N-(3-fluoro-4-(methoxymethyl)phenyl)-7-(1-methylcyclopropyl)-6-((tetrahydro-2H-pyran-4-yl)ethynyl)-7H-pyrrolo[2,3-d]pyrimidine-5-carboxamide]",58%
19,"COCc1ccc(NC(=O)c2c(C#CCN3CCOCC3)n(C3(C)CC3)c3ncnc(N)c23)cc1F [Example 206, 4-amino-N-(3-fluoro-4-(methoxymethyl)phenyl)-7-(1-methylcyclopropyl)-6-(3-morpholinoprop-1-yn-1-yl)-7H-pyrrolo[2,3-d]pyrimidine-5-carboxamide]",77%
20,"CCc1c(C(=O)Nc2ccc(COC)cc2)c2c(N)ncnc2n1C1(C)CC1 [Example 207, 4-amino-6-ethyl-N-(4-(methoxymethyl)phenyl)-7-(1-methylcyclopropyl)-7H-pyrrolo[2,3-d]pyrimidine-5-carboxamide]",72%
